Laboratory results taken from US8614333B2, “Acenaphtho heterocyclic compound and application thereof” (Dalian University of Technology, priority 2010, dated 2013).
Values joined by “and” are separate entries in the source; they are usually repeats but may differ in a detail not shown here. Equal values may be shown once.

Tests used:
Bcl-2 protein = Bcl-2 protein (Homo sapiens, UniProt P10415); assay: ELISA assay, competitive binding to Bcl-2 protein (biotin-Bim/streptavidin plate); conditions: method calculates average IC50, read-out: Bcl-2 binding constants
Method: (§1) The present inventors used fluorescence polarization assay to detect the bonding force between the protein and the compounds in a previous study (PCT/CN2010/075521). […] ELISA assay was used to detect the bonding force between the compounds and the protein in this application.
(§2) Biotinylated Bim peptide was diluted to 0.09 μg/mL in SuperBlock blocking buffer in PBS and incubated for 1.5 h in 96-well microtiter plates already coated with streptavidin to allow the formation of the complex between Biotin-Bim and streptavidin. All incubations were performed at room temperature unless otherwise noted. Each inhibitor was first dissolved in pure DMSO to obtain a 10 mM stock solution. For each tested inhibitor, different concentrations of the inhibitor were incubated with 20 nM His-tagged Mcl-1 protein in PBS for 1 h with a final DMSO concentration of 4%. The plates were washed three times with PBS containing 0.05% Tween-20. The inhibitor and protein mixture (100 μL) were transferred to the plate containing the biotin-Bim/streptavidin complex and incubated for 2 h. The plate was then washed as before and mouse anti-His antibody that conjugated with horseradish peroxidase was added into the wells and incubated for 1 h. The plate was then washed with PBS containing 0.05% Tween-20. Finally, TMB was added to each well; the enzymatic reaction was stopped after 30 min by addition of H2SO4 (100 μL, 2M). Absorbances were measured with a TECAN GENios (Swiss, TECAN) microplate reader using a wavelength of 450 nm. Three independent experiments were performed with each inhibitor to calculate average IC50 value and standard deviation (SD).
(§3) The BH3 analogous degrees of other 11 compounds were detected by using the experimental method as described above. The protein binding constant (binding constant in table 1) between them and Bcl-2 and Mcl-1 proteins were also on nM grade.

His-tagged Mcl-1 protein = His-tagged Mcl-1 protein (Homo sapiens, UniProt Q07820); assay: ELISA assay, competitive binding to Mcl-1 protein (biotin-Bim/streptavidin plate); conditions: 20 nM His-tagged Mcl-1, method calculates average IC50, read-out: Mcl-1 binding constants
Method: as §1, §2, §3

[1] = target: T1, interaction between Bcl-2 and Bax (Homo sapiens, UniProt P10415); assay: Intracellular FRET, Bcl-2-CFP/Bax-YFP in Hela cells; type: cell-based; conditions: for Time (time period after which the interaction between Bcl-2 and Bax was interfered): at the concentration given
T1 construct: expressed in transfected cells; host or cells: Hela cells
Method: 2 μg of Bcl-2-CFP and Bax-YFP plasmids were transfected separately or simultaneously into Hela cells by using calcium phosphate coprecipitation method, 24 hours later, the cells were inoculated in a 6-well plate (2×10^5 cells/well), and the compound 1 to be detected dissolved in DMSO was added there into until the final concentration (2, 5, 10 and 15 μM) was achieved. 24 hours later (please refer to FIG. 5); the cells were washed with PBS for three times. The fluorescence value was detected by GENIOS fluorescence enzyme-labelled meter (TECAN, Swiss). In time-dependent experiment, the transfected cells were inoculated in a 6-well plate, after that, 40 μM of the compound was added thereinto. 3, 6 and 24 hours later (FIG. 6), the fluorescence intensities were detected by plate reader. As for the cell group in which only Bcl-2-CFP plasmid was transfected, the values at 475 nm emission wave length and 433 nm excitation wave length were recorded. As for the cell group in which only Bax-YFP plasmid was transfected, the values at 527 nm emission wave length and 505 nm excitation wave length were recorded. As for the cell group in which Bcl-2-CFP and Bax-YFP plasmids were co-transfected, the values at 527 nm and 475 emission wave lengths and 433 nm excitation wave length were recorded. The ratio of fluorescence intensity at 527 nm and 475 nm emission wave lengths was FRET. The FRET for the control group in which the plasmid was solely transfected was set as 1.0. […] In the cotransfected cells, the FRET increased up to 2.0 due to the interaction of Bcl-2 protein and Bax protein, and that the interference to the interaction between the two proteins increased and FRET decreased with the increase of the drug concentration and time. The cellular vitality was detected by MTT method. When the concentration of the compound reached 1 μM, the interaction between Bcl-2 and Bax can be interfered after 2 hours, and the results appeared concentration-time dependent trend.
Wherein the concentration and time meant that the detected compound interfered with the interaction between Bcl-2 and Bax at the concentration for the time period.

[2] = test system: BAX shift towards the chondriosome; assay: Co-localization between Bax protein and chondriosome, Bax-YFP in MCF-7 cells; type: cell-based; conditions: for Doses (concentration at which the compound drove the BAX to shift towards the chondriosome): Bax-YFP/Mito Tracker Red; for Time (time period after which BAX shifted towards the chondriosome): at the concentration given
Method: 5 μg of Bax-YFP plasmid was transfected into MCF-7 cells by using calcium phosphate coprecipitation method, 24 hours later, the cells were inoculated in a 6-well plate (0.2×10^6 cells/well), and 10 μM of the compound 1 to be detected was added thereinto. 6 hours later, the cells were washed with PBS and hatched away from light with 50 nM Mito Tracker Red CMXRos (chondriosome specific probes; red) for 10 minutes. Then the cells were washed with PBS for three times, and the fluorescent image was scanned with Radiance2000 laser confocal microscopy (Bio-Rad, USA). Meanwhile, dual channel scanning was carried out, one channel was used to scan the green fluorescence of Bax-YFP, and the other channel was used to scan the red fluorescence of the CMXRos probe for indicating the chondriosome. […] When the Bax protein was localized on the chondriosome, the green and red fluorescence was superimposed into orange, as shown in FIG. 7.
Other 24 compounds were detected by the same experimental method as described above. […] Wherein the concentration and time meant that the detected compound simulated the BH3-only protein and driven the BAX to shift towards the chondriosome at the concentration for the time period.

MCF-7 cells = assay: Cytotoxicity by MTT, cells without plasmid transfection; type: cell-based; conditions: Homo sapiens, MCF7; MCF-7, MTT, 48 hours; read-out: IC50 value in untransfected cells
Method: (§4) 3 μg of BAX/BAK interfering plasmid was transfected into MCF-7 cells by using calcium phosphate coprecipitation method, 24 hours later, the cells were collected. The expressions after the BAX and BAK proteins interfered with RNA was detected by Western, and the cell groups without plasmid transfection were treated similarly and were set as the control group. The transfected cells were inoculated in a 96-well plate (1×10^5 cells/well), the control experiment of the cell group without plasmid transfection was carried out in parallel. The compound 1 to be detected was added thereinto according to the concentration gradient designed before the experiment. 48 hours later, the cellular vitality was detected by MTT. The experimental results were shown in FIG. 9, Gossypol as nonspecific BH3 analogue was treated in parallel.
(§5) Other 24 compounds were also detected by the same experimental method as described above, the differences of IC50 values between the transfected cells and the without plasmid transfection cells were compared.

[3] = test system: MCF-7 cells transfected with BAX/BAK interfering plasmid; assay: Cytotoxicity by MTT, cells transfected with BAX/BAK interfering plasmid; type: cell-based; conditions: for IC50: Homo sapiens, MCF7, MCF-7 with BAX/BAK interfering plasmid, MTT, 48 hours
Method: as §4, §5

Bcl-2 = assay: Western blotting, semiquantitative analysis of Bcl-2 protein bands; type: cell-based; conditions: tumor cells; for concentration of the protein bands (semiquantitative, normalized), Bcl-2: control = 1
Method: (§6) The interest protein was detected by the corresponding antibody. The expression of the interest protein in the cells was detected by horseradish peroxidase-labeled secondary antibodies in combination with ECL coloration method. […] The concentration of the protein bands in the Western images were carried out semiquantitative analysis and normalization treatment with KODAK Gel Logic 1500 imaging system software.

Mcl-1 = assay: Western blotting, semiquantitative analysis of Mcl-1 protein bands; type: cell-based; conditions: tumor cells; for concentration of the protein bands (semiquantitative, normalized), Mcl-1: control = 1
Method: as §6

Chain of His-tagged Mcl-1 protein (Q07820 whole entry): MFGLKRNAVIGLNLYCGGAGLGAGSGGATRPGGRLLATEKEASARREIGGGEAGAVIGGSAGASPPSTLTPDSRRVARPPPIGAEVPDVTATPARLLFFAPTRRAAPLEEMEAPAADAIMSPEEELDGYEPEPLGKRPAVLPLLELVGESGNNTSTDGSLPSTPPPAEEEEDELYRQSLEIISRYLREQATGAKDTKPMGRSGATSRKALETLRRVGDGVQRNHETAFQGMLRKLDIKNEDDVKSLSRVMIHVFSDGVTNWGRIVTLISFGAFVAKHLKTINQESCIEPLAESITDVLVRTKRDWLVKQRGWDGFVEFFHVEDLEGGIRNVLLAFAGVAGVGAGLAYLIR
T1 sequence (P10415 whole entry): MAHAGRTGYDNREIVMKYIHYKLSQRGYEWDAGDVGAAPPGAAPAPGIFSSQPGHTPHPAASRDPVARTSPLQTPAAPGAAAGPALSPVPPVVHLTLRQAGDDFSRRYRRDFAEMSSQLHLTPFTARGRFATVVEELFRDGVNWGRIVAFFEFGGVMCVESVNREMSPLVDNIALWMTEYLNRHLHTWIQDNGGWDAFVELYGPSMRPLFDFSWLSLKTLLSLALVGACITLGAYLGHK
Chain of Bcl-2 protein (P10415 whole entry, species assumed): as the sequence (P10415 whole entry) above

Structure (SMILES) | IC50 (Bcl-2 protein) [nM] | IC50 (His-tagged Mcl-1 protein) [nM] | Doses (concentration at which the compound interfered with the interaction between Bcl-2 and Bax) [1] | Time (time period after which the interaction between Bcl-2 and Bax was interfered) [1] [h] | Doses (concentration at which the compound drove the BAX to shift towards the chondriosome) [2] [µM] | Time (time period after which BAX shifted towards the chondriosome) [2] [h] | IC50 (MCF-7 cells) [nM] | IC50 [3] [nM] | dependence of cytotoxicity on BAX/BAK ([3]; comparison of transfected and untransfected MCF-7 cells) | concentration of the protein bands (semiquantitative, normalized), Bcl-2 (Bcl-2; 6 h) | concentration of the protein bands (semiquantitative, normalized), Bcl-2 (Bcl-2; 12 h) | concentration of the protein bands (semiquantitative, normalized), Bcl-2 (Bcl-2; 18 h) | concentration of the protein bands (semiquantitative, normalized), Bcl-2 (Bcl-2; 24 h) | inhibition against Bcl-2 (in words) (Bcl-2; Western blotting) | concentration of the protein bands (semiquantitative, normalized), Mcl-1 (Mcl-1; 2 h) | concentration of the protein bands (semiquantitative, normalized), Mcl-1 (Mcl-1; 6 h) | inhibition against Mcl-1 (in words) (Mcl-1; Western blotting) | melting point [°C]
CCCCNC1=C2C(=NC1=O)c1cccc3cccc2c13 [Compound 1, 9-n-Butylamino-8H-acenaphtho[1,2-b]pyrrol-8-one] | 142 | 49 | 1 µM and 1.0 µM | 2 | 1.0 | 3 | 4000 | > 50000 | absolute dependence on BAX/BAK | 0.99 | 0.99 | 0.58 | 0.21 | had the inhibition against these two proteins | 0.79 | 0.35 | had the inhibition against these two proteins | –
O=C1N=C2C(=C1NCCCc1ccccc1)c1ccc(N3CCSCC3)c3cccc2c13 [Compound 10, 9-(3-Phenyl-propylamino)-3-thiomorpholin-4-yl-acenaphtho[1,2-b]pyrrol-8-one] | 17 | 5 | 0.1 µM | 2 | 0.2 | 1 | 500 | > 50000 | – | 0.99 | 0.99 | 0.45 | 0.12 | – | 0.53 | 0.21 | – | 265 to 266
CCCCNC1=C2C(=NC1=O)c1cccc3c(C(=O)c4ccccc4)ccc2c13 [Compound 5, 3-Benzoyl-9-butylamino-acenaphtho[1,2-b]pyrrol-8-one] | 65 | 125 | 2.0 µM | 6 | 5.0 | 5 | 6500 | > 50000 | – | – | – | – | – | – | – | – | – | 262 to 263
CCCCN(C)C1=C2C(=NC1=O)c1cccc3cccc2c13 [Compound 6, 9-(Butyl-methyl-amino)-acenaphtho[1,2-b]pyrrol-8-one] | 45 | 66 | 2.0 µM | 5 | 4.0 | 4 | 4000 | > 50000 | – | – | – | – | – | – | – | – | – | 245 to 246
CCOc1ccc2c3c(cccc13)C1=NC(=O)C(NCCCc3ccccc3)=C12 [Compound 4, 3-Ethoxy-9-(3-phenyl-propylamino)-acenaphtho[1,2-b]pyrrol-8-one] | 35 | 95 | 1.0 µM | 5 | 3.0 | 4 | 5600 | > 50000 | – | – | – | – | – | – | – | – | – | 250 to 251
